Test results taken from article PMC12643230, “Retention order prediction of peptides containing non-proteinogenic amino acids” (Bioinformatics Advances, 2025).
Read-outs that look alike come from different tables or passages of the source.

Assay: LC/MS retention time of standard compounds and sponge extract (in-house platform)
Format: physicochemical
Set-up: RT (retention time): unit not given here
Experimental: Total 22 compounds and 9 PNPA standards covering a long time-range were purchased as reference standards (Table 1). Each standard compound was experimentally measured with our in-house LC/MS platform with conditions in Supporting Table 1, available as supplementary data at Bioinformatics Advances online.
The resulting extract was dissolved in methanol and subjected to LC/MS analysis with conditions in Supporting Table 1, available as supplementary data at Bioinformatics Advances online, for metabolite profiling.

[1] = purchased PNPA standard, in-house LC/MS platform, conditions in Supporting Table 1 (not shown), retention time related to hydrophobic/hydrophilic substructures, unit not given

## C=CC/C(=N/OS(=O)(=O)O)S[C@@H]1O[C@H](CO)[C@@H](O)[C@H](O)[C@H]1O [2-Propenyl glucosinolate]
LC/MS, in-house platform, reference compound used for retention order comparison, sheet COCONUT
  RT (retention time of the reference compound): 1.74 min

## C/C(=C\c1csc(C)n1)[C@@H]1C[C@@H]2O[C@]2(C)CCC[C@H](C)[C@H](O)[C@@H](C)C(=O)C(C)(C)[C@@H](O)CC(=O)O1 [Epothilone B]
[1]
  RT (retention time): 7.67

## Bacitracin
  RT (retention time): 4.67

## Gramicidin A
[1]
  RT (retention time): 9.19

## Jaspamide [Measured compound]
Column 'Measured compound', reference RT 1.74, observed order, no key for 1/0 printed, sheet COCONUT
  Retention order of the measured compound against reference compound 2-Propenyl glucosinolate (binary 1/0): 1
Compound detected in methanol extract of marine sponge Jaspis splendens, same in-house LC/MS conditions (Supporting Table 1), annotated as Jaspamide via retention order and MS/MS, unit not given
  RT (retention time) of measured compound: 8.45

## [Arg8]-Vasopressin
[1]
  RT (retention time): 3.11

## α-Amanitin
[1]
  RT (retention time): 3.41
